Experimental data published in US20250236608A1, “EGFR INHIBITORS” (Blueprint Medicines Corporation, priority 2022, published 2025).
Structures can show the parent of a compound that is named as a salt.

Columns and labels:
[1] = biological target: pEGFR (Tyr1068) in PC-9 cells (Ex19Del) (Homo sapiens (Human), UniProt P00533, DEL746-750); assay: PC-9 pEGFR AlphaLISA assay; format: cell-based; settings: 4 hours incubation, p-EGFR (Tyr1068) AlphaLISA, read-out: Ext pEGFR_PC-9 Ex19Del IC50
Protocol: PC-9/A431 pEGFR AlphaLISA Assays
Inhibitory effects of compounds were evaluated in cellular assays that measure level of intracellular phosphorylation of EGFR in PC-9 (ECACC, #90071810, Milipore/Sigma) and A431 cell lines (ATCC, CRL-1555) using AlphaLISA sureFire ultra p-EGFR (Tyr1068) assay kit (PerkinElmer, ALSU-PEGFR-A50K). PC-9 cells were seeded at 3.125×10^5 cells/ml in 40 μL phenol-free DMEM supplemented with 10% FBS per well of a 384 well plate (Corning, 3764), while A431 were seeded at 3.125×10^5 cells/ml in 40 μL in phenol-free DMEM with 0.5% FBS. Cells were allowed to adhere overnight at 37° C./5% CO2. On the next day, compounds were transferred at 4-fold, 10-point serial dilution from compound source plate to cell plates using liquid handler Echo550 and were incubated at 37° C./5% CO2 for 4 hours. A431 cells were stimulated prior harvesting for 10 min with EGF at final concentration of 30 ng/ml in the incubator. Medium was removed from the plates and cells were lysed with 10 μL of 1× AlphaLISA lysis buffer (supplemented with 1× protease/phosphatase inhibitor cocktail) followed by shaking at 600 rpm for 30 minutes at room temperature. Lysates were transferred to Optiplate (Apricot designs) and 5 μl of 1× acceptor bead mix (prepared just before use) was added to each well followed by incubation at room temperature for 1.5-2 h in dark. Then 5 μL of freshly-made donor bead mix is added to each well under subdued lighting or green filters, was mixed well on the shaker and the plate was sealed and left for an overnight incubation at room temperature in dark. On the next day, the plate was read the Envision using standard AlphaLisa settings. Percent of pEGFR inhibition was plotted against log concentration of compounds to generate IC50 values.

[2] = biological target: EGFR (d746-750) (Homo sapiens (Human), UniProt P00533, DEL746-750); assay: Biochemical EGFR inhibition assay, EGFR (d746-750); settings: Caliper mobility shift; 1.0 mM ATP or ATP Km; read-out: Enz EGFR_Exon19-del746-750 IC50
Protocol: (§1) Reactions proceeded until between 10% to 20% total peptides were phosphorylated at room temperature (25° C.) and were terminated with 35 mM 2,2′,2″,2″-(ethane-1,2-diyldinitrilo)tetraacetic acid (EDTA). Product was detected using the Caliper mobility shift detection method where the phosphorylated peptide (product) and substrate were electrophoretically separated and measured. Percent activity was plotted against log concentration of compound and points to generate an apparent IC50.

[3] = biological target: EGFR L858R (Homo sapiens (Human), UniProt P00533, L858R); assay: Biochemical EGFR inhibition assay, EGFR L858R; settings: Caliper mobility shift; 1.0 mM ATP or ATP Km; read-out: Enz EGFR_L858R IC50
Protocol: as §1

Row | Compound | IC50 [1] [nM] | IC50 [2] [nM] | IC50 [3] [nM]
1 | CCn1cc(C(=O)Nc2cc3c(-c4cn(CC(F)F)nc4-c4ccccc4)ncnc3cc2OC)cn1 [Example 268, N-(4-(1-(2,2-difluoroethyl)-3-phenyl-1H-pyrazol-4-yl)-7-methoxyquinazolin-6-yl)-1-ethyl-1H-pyrazole-4-carboxamide] | 0.8 | 1.1 | 1.8
2 | COc1cc2ncnc(-c3cn(C)nc3-c3ccccc3)c2cc1OC(=O)N1[C@H](C)CNC[C@@H]1C [Example 87, 7-methoxy-4-(1-methyl-3-phenyl-1H-pyrazol-4-yl)quinazolin-6-yl (2R,6S)-2,6-dimethylpiperazine-1-carboxylate] | 5.7 | 2.1 | 4.9
3 | COc1cc2ncnc(-c3cn(C)nc3-c3ccccc3)c2nc1OC(C)c1nnc(C)o1 (stereo not drawn) [Example 27, 2-(1-((7-methoxy-4-(1-methyl-3-phenyl-1H-pyrazol-4-yl)pyrido[3,2-d]pyrimidin-6-yl)oxy)ethyl)-5-methyl-1,3,4-oxadiazole] | 8.1 | 3 | 5.5
4 | COc1cc2ncnc(-c3cn(C)nc3-c3ccccc3F)c2nc1NC(=O)[C@]12COC[C@H]1C2 (single isomer, unassigned) [Example 386, (1S,5S)—N-(4-(3-(2-fluorophenyl)-1-methyl-1H-pyrazol-4-yl)-7-methoxypyrido[3,2-d]pyrimidin-6-yl)-3-oxabicyclo[3.1.0]hexane-1-carboxamide or (1R,5R)—N-(4-(3-(2-fluorophenyl)-1-methyl-1H-pyrazol-4-yl)-7-methoxypyrido[3,2-d]pyrimidin-6-yl)-3-oxabicyclo[3.1.0]hexane-1-carboxamide] | 1.7 | 1.1 | 2.1
5 | COc1cc2ncnc(-c3cn(C)nc3-c3ccccc3)c2cc1NC(=O)c1ccc(C2CC2)nc1 [Example 229, 6-cyclopropyl-N-(7-methoxy-4-(1-methyl-3-phenyl-1H-pyrazol-4-yl)quinazolin-6-yl) nicotinamide] | 3.7 | 1.7 | 3.5
6 | COc1cc2ncnc(-c3cn(C)nc3-c3ccccc3)c2cc1NC(=O)N1CCO[C@@H](C)[C@@H]1C [Example 177, (2S,3S)—N-(7-methoxy-4-(1-methyl-3-phenyl-1H-pyrazol-4-yl)quinazolin-6-yl)-2,3-dimethylmorpholine-4-carboxamide] | 6.1 | 2.1 | 4.3
7 | COc1cc2ncnc(-c3cn(C)nc3-c3ccccc3)c2cc1-c1ccc2c(=O)[nH]ccc2c1 [Example 144, 6-(7-methoxy-4-(1-methyl-3-phenyl-1H-pyrazol-4-yl)quinazolin-6-yl)isoquinolin-1(2H)-one] | 8.3 |  | 
8 | COc1cc2ncnc(-c3cn(C)nc3-c3ccccc3)c2cc1NC(=O)[C@@H]1CCN1C (single isomer, unassigned) [Example 252, (S)—N-(7-methoxy-4-(1-methyl-3-phenyl-1H-pyrazol-4-yl)quinazolin-6-yl)-1-methylazetidine-2-carboxamide or (R)—N-(7-methoxy-4-(1-methyl-3-phenyl-1H-pyrazol-4-yl)quinazolin-6-yl)-1-methylazetidine-2-carboxamide] | 3.2 |  | 
9 | COc1cc2ncnc(-c3cn(C)nc3-c3c(F)cccc3F)c2nc1NC(=O)[C@@]12C[C@@H]1CN(C)C2 (single isomer, unassigned) [Example 412, (1S,5S)—N-(4-(3-(2,6-difluorophenyl)-1-methyl-1H-pyrazol-4-yl)-7-methoxypyrido[3,2-d]pyrimidin-6-yl)-3-methyl-3-azabicyclo[3.1.0]hexane-1-carboxamide or (1R,5R)—N-(4-(3-(2,6-difluorophenyl)-1-methyl-1H-pyrazol-4-yl)-7-methoxypyrido[3,2-d]pyrimidin-6-yl)-3-methyl-3-azabicyclo[3.1.0]hexane-1-carboxamide] | 6.7 |  | 26
10 | COc1cc2ncnc(-c3cn(C)nc3-c3ccccc3)c2cc1-c1ccc2n[nH]cc2c1C [Example 145, 7-methoxy-6-(4-methyl-2H-indazol-5-yl)-4-(1-methyl-3-phenyl-1H-pyrazol-4-yl)quinazoline] | 5.9 |  | 
11 | COc1cc2ncnc(-c3cn(C)nc3-c3ccccc3)c2cc1-c1cc2c[nH]nc2cc1C [Example 147, 7-methoxy-6-(6-methyl-2H-indazol-5-yl)-4-(1-methyl-3-phenyl-1H-pyrazol-4-yl)quinazoline] |  |  | 13.7
12 | 7-ethoxy-6-(2-methyl-2H-indazol-4-yl)-4-(1-methyl-3-phenyl-1H-pyrazol-4-yl)pyrido[3,2-d]pyrimidine [Example 156] | 2.4 |  | 3.2
13 | COc1cc2ncnc(-c3cn(C)nc3-c3c(F)cccc3F)c2nc1NC(=O)[C@]12C[C@H]1CN(C)C2 (single isomer, unassigned) [Example 413, (1R,5R)—N-(4-(3-(2,6-difluorophenyl)-1-methyl-1H-pyrazol-4-yl)-7-methoxypyrido[3,2-d]pyrimidin-6-yl)-3-methyl-3-azabicyclo[3.1.0]hexane-1-carboxamide or (1S,5S)—N-(4-(3-(2,6-difluorophenyl)-1-methyl-1H-pyrazol-4-yl)-7-methoxypyrido[3,2-d]pyrimidin-6-yl)-3-methyl-3-azabicyclo[3.1.0]hexane-1-carboxamide] | 23.2 |  | 10
14 | COc1cc2ncnc(-c3cn(C)nc3-c3ccccc3)c2cc1NC(=O)C1CCN1C (stereo not drawn) [Example 251, N-(7-methoxy-4-(1-methyl-3-phenyl-1H-pyrazol-4-yl)quinazolin-6-yl)-1-methylazetidine-2-carboxamide] | 3.5 |  | 
15 | COc1cc2ncnc(-c3cn(C)nc3-c3ccccc3)c2cc1-c1cc2c[nH]nc2cc1C [Example 146, 7-methoxy-6-(6-methyl-2H-indazol-5-yl)-4-(1-methyl-3-phenyl-1H-pyrazol-4-yl)quinazoline] |  |  | 8.2
16 | COc1cc2ncnc(-c3cn(C)nc3-c3ccccc3)c2cc1NC(=O)[C@]12C[C@H]1CN(C)C2 [Example 337, (1R,5R)—N-(7-methoxy-4-(1-methyl-3-phenyl-1H-pyrazol-4-yl)quinazolin-6-yl)-3-methyl-3-azabicyclo[3.1.0]hexane-1-carboxamide] | 5.9 |  | 
17 | COc1cc2ncnc(-c3cn(C)nc3-c3ccccc3)c2cc1-c1ccnc(N2CCNCC2)c1 [Example 139, 7-methoxy-4-(1-methyl-3-phenyl-1H-pyrazol-4-yl)-6-(2-(piperazin-1-yl)pyridin-4-yl)quinazoline formate] | 5.1 |  | 
18 | Cn1cc(-c2ccc3c(-c4c[nH]nc4-c4cccc(Cl)c4)ncnc3c2)cn1 [Example 440, 4-(3-(3-chlorophenyl)-1H-pyrazol-4-yl)-7-(1-methyl-1H-pyrazol-4-yl)quinazoline] | 1.1 |  | 0.9
19 | COc1cc2ncnc(-c3cn(C)nc3-c3ccccc3)c2cc1NC(=O)[C@@]12C[C@@H]1CN(C)C2 [Example 336, (1S,5S)—N-(7-methoxy-4-(1-methyl-3-phenyl-1H-pyrazol-4-yl)quinazolin-6-yl)-3-methyl-3-azabicyclo[3.1.0]hexane-1-carboxamide] | 4 |  | 
20 | CCC(=O)Nc1cc2c(-c3cn(C)nc3-c3ccccc3)ncnc2cc1-c1ccncn1 [Example 448, N-(4-(1-methyl-3-phenyl-1H-pyrazol-4-yl)-7-(pyrimidin-4-yl)quinazolin-6-yl)propionamide] | 6.5 |  | 
21 | COc1cc2ncnc(-c3cn(C)nc3-c3ccccc3)c2cc1NC(=O)C12C3C4C1C1C2C3C41NC(=O)OC(C)(C)C (stereo not drawn) [Example 343, tert-butyl (4-((7-methoxy-4-(1-methyl-3-phenyl-1H-pyrazol-4-yl)quinazolin-6-yl)carbamoyl)cuban-1-yl)carbamate] | 4.5 |  | 
22 | CN1CC[C@@H](Oc2cc3c(-c4cn(C)nc4-c4ccccc4)ncnc3cc2OC2CC2)[C@H](F)C1 [Example 476, 7-cyclopropoxy-6-(((3R,4R)-3-fluoro-1-methylpiperidin-4-yl)oxy)-4-(1-methyl-3-phenyl-1H-pyrazol-4-yl)quinazoline] |  | 1.3 | 5.4
